Patent publication US6358885B1, “Substituted phenylheterocyclic herbicides” (Mississippi State University, priority 1992, dated 2002)

What was measured:
soybean [1] = test: Test C preemergence/postemergence greenhouse plant response rating 0 to 100; assay type: in vivo, Glycine max; conditions: POSTEMERGENCE
In short: (§1)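 Compounds in non-phytotoxic solvent went onto sandy loam before emergence (seeded one day earlier) or onto plants at the one-to-four leaf stage. Duck salad was treated via flood water (~2.5 cm, maintained) over silt loam.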

rape = test: as above; assay type: in vivo, Brassica napus; conditions: POSTEMERGENCE
In short: as §1

soybean [2] = test: Test B preemergence/postemergence greenhouse plant response rating 0 to 10; assay type: in vivo, Glycine max; conditions: 0 to 10 scale
In short: (§2)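 Postemergence treatment of plants two to eighteen cm tall ran alongside preemergence treatment of planted seed, each using compound in a non-phytotoxic solvent.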

bedstraw = test: as above; assay type: in vivo, Galium aparine; conditions: 0 to 10 scale
In short: as §2

ryegrass = test: Test C preemergence/postemergence greenhouse plant response rating 0 to 100; assay type: in vivo, Lolium multiflorum; conditions: POSTEMERGENCE
In short: as §1

pigweed = test: as above; assay type: in vivo, Amaranthusretroflexus; conditions: POSTEMERGENCE
In short: as §1

morningglory = test: Test B preemergence/postemergence greenhouse plant response rating 0 to 10; assay type: in vivo, Ipomoea hederacea; conditions: 0 to 10 scale
In short: as §2

barley [3] = test: as above; assay type: in vivo, Hordeum vulgare; conditions: 0 to 10 scale
In short: as §2

chickweed [4] = test: as above; assay type: in vivo, Stellaria media; conditions: 0 to 10 scale
In short: as §2

cocklebur = test: as above; assay type: in vivo, Xanthium pensylvanicum; conditions: 0 to 10 scale
In short: as §2

chickweed [5] = test: Test C preemergence/postemergence greenhouse plant response rating 0 to 100; assay type: in vivo, Stellaria media; conditions: POSTEMERGENCE
In short: as §1

velvetleaf = test: Test B preemergence/postemergence greenhouse plant response rating 0 to 10; assay type: in vivo, Abutilon theophrasti; conditions: 0 to 10 scale
In short: as §2

sugar beet = test: as above; assay type: in vivo, Beta vulgaris; conditions: 0 to 10 scale
In short: as §2

barley [6] = test: Test C preemergence/postemergence greenhouse plant response rating 0 to 100; assay type: in vivo, Hordeum vulgare; conditions: POSTEMERGENCE
In short: as §1

sorghum = test: Test B preemergence/postemergence greenhouse plant response rating 0 to 10; assay type: in vivo, Sorghum bicolor; conditions: 0 to 10 scale
In short: as §2

wild buckwheat = test: as above; assay type: in vivo, Polygonum convolvulus; conditions: 0 to 10 scale
In short: as §2

umbrella sedge = test: Test C flood test plant response rating 0 to 100; assay type: in vivo, Cyperus difformis
In short: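 Compounds in non-phytotoxic solvent applied preemergence to sandy loam one day after planting, postemergence at the 1–4 leaf stage, or to ~2.5 cm floodwater over silt loam.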

blackgrass = test: Test C preemergence/postemergence greenhouse plant response rating 0 to 100; assay type: in vivo, Alopecurus myosuroides; conditions: POSTEMERGENCE
In short: as §1

COCN1C(=O)COc2cc(F)c(-c3nn4c(c3Cl)CCCC4)cc21 [Compound 55]
Plant response rating, Soybean (soybean [1]; 62 g/ha, 0 to 100 scale): 95
Plant response rating (0 to 100), Soybean (soybean [1]; Rate 1 g/ha): 40
Plant response rating (0 to 100), Soybean (soybean [1]; Rate 4 g/ha): 70
Plant response rating (0 to 100), Soybean (soybean [1]; Rate 16 g/ha): 90
Plant response rating, Rape (rape; 62 g/ha, 0 to 100 scale): 100
Plant response rating (0 to 100), Rape (rape; Rate 1 g/ha): 60
Plant response rating (0 to 100), Rape (rape; Rate 4 g/ha): 100
Plant response rating (0 to 100), Rape (rape; Rate 16 g/ha): 100
Plant response rating, Soybean (soybean [2]; POSTEMERGENCE, Rate 10 g/ha): 7
Plant response rating, Soybean (soybean [2]; POSTEMERGENCE, Rate 50 g/ha): 9
Plant response rating, Soybean (soybean [2]; PREEMERGENCE, Rate 50 g/ha): 0
Plant response rating, Bedstraw (bedstraw; POSTEMERGENCE, Rate 10 g/ha): 9
Plant response rating, Bedstraw (bedstraw; POSTEMERGENCE, Rate 50 g/ha): 10
Plant response rating, Bedstraw (bedstraw; PREEMERGENCE, Rate 10 g/ha): 3
Plant response rating, Bedstraw (bedstraw; PREEMERGENCE, Rate 50 g/ha): 10
Plant response rating Ryegrass (ryegrass; 62 g/ha, 0 to 100 scale): 60
Plant response rating (0 to 100), Ryegrass (ryegrass; Rate 1 g/ha): 10
Plant response rating (0 to 100), Ryegrass (ryegrass; Rate 4 g/ha): 30
Plant response rating (0 to 100), Ryegrass (ryegrass; Rate 16 g/ha): 40
Plant response rating Pigweed (pigweed; 62 g/ha, 0 to 100 scale): 100
Plant response rating (0 to 100), Pigweed (pigweed; Rate 1 g/ha): 100
Plant response rating (0 to 100), Pigweed (pigweed; Rate 4 g/ha): 100
Plant response rating (0 to 100), Pigweed (pigweed; Rate 16 g/ha): 100
Plant response rating, Morningglory (morningglory; POSTEMERGENCE, Rate 10 g/ha): 10
Plant response rating, Morningglory (morningglory; POSTEMERGENCE, Rate 50 g/ha): 10
Plant response rating, Morningglory (morningglory; PREEMERGENCE, Rate 50 g/ha): 8
Plant response rating, Barley (barley [3]; POSTEMERGENCE, Rate 10 g/ha): 5
Plant response rating, Barley (barley [3]; POSTEMERGENCE, Rate 50 g/ha): 4
Plant response rating, Barley (barley [3]; PREEMERGENCE, Rate 10 g/ha): 0
Plant response rating, Barley (barley [3]; PREEMERGENCE, Rate 50 g/ha): 3
Plant response rating, Chickweed (chickweed [4]; POSTEMERGENCE, Rate 10 g/ha): 9
Plant response rating, Chickweed (chickweed [4]; POSTEMERGENCE, Rate 50 g/ha): 10
Plant response rating, Chickweed (chickweed [4]; PREEMERGENCE, Rate 10 g/ha): 9
Plant response rating, Chickweed (chickweed [4]; PREEMERGENCE, Rate 50 g/ha): 10
Plant response rating, Cocklebur (cocklebur; POSTEMERGENCE, Rate 10 g/ha): 10
Plant response rating, Cocklebur (cocklebur; POSTEMERGENCE, Rate 50 g/ha): 10
Plant response rating, Cocklebur (cocklebur; PREEMERGENCE, Rate 50 g/ha): 2
Plant response rating, Chickweed (chickweed [5]; 62 g/ha, 0 to 100 scale): 100
Plant response rating (0 to 100), Chickweed (chickweed [5]; Rate 1 g/ha): 30
Plant response rating (0 to 100), Chickweed (chickweed [5]; Rate 4 g/ha): 70
Plant response rating (0 to 100), Chickweed (chickweed [5]; Rate 16 g/ha): 100
Plant response rating, Velvetleaf (velvetleaf; POSTEMERGENCE, Rate 10 g/ha): 10
Plant response rating, Velvetleaf (velvetleaf; POSTEMERGENCE, Rate 50 g/ha): 9
Plant response rating, Velvetleaf (velvetleaf; PREEMERGENCE, Rate 50 g/ha): 10
Plant response rating, Sugar beet (sugar beet; POSTEMERGENCE, Rate 10 g/ha): 10
Plant response rating, Sugar beet (sugar beet; POSTEMERGENCE, Rate 50 g/ha): 10
Plant response rating, Sugar beet (sugar beet; PREEMERGENCE, Rate 50 g/ha): 10
Plant response rating Barley Igri (barley [6]; 62 g/ha, 0 to 100 scale): 50
Plant response rating (0 to 100), Barley Igri (barley [6]; Rate 1 g/ha): 20
Plant response rating (0 to 100), Barley Igri (barley [6]; Rate 4 g/ha): 30
Plant response rating (0 to 100), Barley Igri (barley [6]; Rate 16 g/ha): 40
Plant response rating, Sorghum (sorghum; POSTEMERGENCE, Rate 10 g/ha): 3
Plant response rating, Sorghum (sorghum; POSTEMERGENCE, Rate 50 g/ha): 4
Plant response rating, Sorghum (sorghum; PREEMERGENCE, Rate 50 g/ha): 0
Plant response rating, Wild buckwheat (wild buckwheat; POSTEMERGENCE, Rate 10 g/ha): 10
Plant response rating, Wild buckwheat (wild buckwheat; POSTEMERGENCE, Rate 50 g/ha): 0
Plant response rating, Wild buckwheat (wild buckwheat; PREEMERGENCE, Rate 50 g/ha): 10
Plant response rating (0 to 100), Umbrella sedge (umbrella sedge; POSTEMERGENCE section, flood test, Rate 1 g/ha): 10
Plant response rating (0 to 100), Umbrella sedge (umbrella sedge; POSTEMERGENCE section, flood test, Rate 4 g/ha): 30
Plant response rating (0 to 100), Umbrella sedge (umbrella sedge; Rate 16 g/ha, under POSTEMERGENCE head (flood test species)): 70
Plant response rating Umbrella sedge (umbrella sedge; flood test species listed under POSTEMERGENCE, 62 g/ha, 0 to 100 scale): 90
Plant response rating, Blackgrass (blackgrass; 62 g/ha, 0 to 100 scale): 60
Plant response rating (0 to 100), Blackgrass (blackgrass; Rate 1 g/ha): 30
Plant response rating (0 to 100), Blackgrass (blackgrass; Rate 4 g/ha): 40
Plant response rating (0 to 100), Blackgrass (blackgrass; Rate 16 g/ha): 50
